Patent US20040005537A1, “Method of identifying toxic agents using differential gene expression” (priority 2000, published 2004)

Experiments:
[1] = cited from earlier work
rat heart tissue = test: GENECALLING differential gene expression analysis after dosing of serotonin modulating agents; type: in vivo, Sprague Dawley rats
Experimental: Control animals received sterile water or canola oil. The animals were sacrificed 24 hours following the last dose. Liver tissue was dissected from the animals, and total RNA was recovered from the dissected tissue. cDNA was prepared and the resulting samples were processed through using GENECALLING™ differential expression analysis as described in U.S. Pat. No. 5,871,697 and in Shimkets et al., Nature Biotechnology 17:798-803 (1999). The contents of these patents and publications are incorporated herein by reference in their entirety.
Thousands of gene fragments were initially found to be differentially expressed in rat heart tissue in response to serotonin modulating agents in. Genes fragments whose expression levels were modulated greater than ±1.5-fold were selected for further analysis.
Column 6 of Table 1, entitled “Function”, lists the type of classification assigned for the protein, based on its function. The 210 single nucleic acid sequences identified herein, are referred to herein as CARDIOTOX 1-210.

CCN[C@@H](C)Cc1cccc(C(F)(F)F)c1 [dexfenfluramine]
classification as cardiotoxic or noncardiotoxic serotonin modulating agent ([1]; grouping used to generate the distinguishing gene profiles): cardiotoxic | side effect reported in a subset of patients ([1]; patients to which they are administered): valvular heart disease | Effects on Transcription Level: Novel gene fragment, 524 bp, 86% SI to mouse F-box protein FBX6b [AF176526] (rat heart tissue; CARDIOTOX 1): +1.5 fold | Effects on Transcription Level: Novel gene fragment, 306 bp, 91% SI to mouse low density lipoprotein receptor related protein 4 [AB013874] (rat heart tissue; CARDIOTOX 2): −1.8 fold | Effects on Transcription Level: Novel gene fragment, 540 bp, 97% SI to mouse skeletal muscle alpha-actin [X03766] (rat heart tissue; CARDIOTOX 3): +2.3 fold | Effects on Transcription Level: Novel gene fragment, 80 bp (rat heart tissue; CARDIOTOX 4): −1.6 fold | Effects on Transcription Level: Novel gene fragment, 957 bp, 99% SI to kidney injury associated moleculer HW036 [V80591] (rat heart tissue; CARDIOTOX 5): −1.6 fold | Effects on Transcription Level: Novel gene fragment, 282 bp, 85% SI to human KIAA1515 protein [AB040948] (rat heart tissue; CARDIOTOX 6): −1.7 fold | Effects on Transcription Level: Novel gene fragment, 405 bp, 88% SI to human 2-oxoglutarate dehydrogenase [D10523] (rat heart tissue; CARDIOTOX 7): +1.5 fold | Effects on Transcription Level: UCP2 (rat heart tissue; CARDIOTOX 8, GenBank AB010743): −1.6 fold | Effects on Transcription Level: Plasma membrane Ca2 + ATPase-isoform 1 (rat heart tissue; CARDIOTOX 9, GenBank J03753): −1.6 fold | Effects on Transcription Level: Novel gene fragment, 242 bp, 97% SI to mouse HSP86 heat-shock protein [X16857] (rat heart tissue; CARDIOTOX 10): +1.4 fold | Effects on Transcription Level: Novel gene fragment, 280 bp, 65% SI to human TRF1-interacting, ankyrin-related ADP-ribose polymerase [AF082556] (rat heart tissue; CARDIOTOX 11): +1.4 fold | Effects on Transcription Level: Novel gene fragment, 348 bp, 88% SI to mouse Sec61 protein complex gamma subunit [U11027] (rat heart tissue; CARDIOTOX 12): +1.3 fold | Effects on Transcription Level: Novel gene fragment 553 bp, 93% SI to mouse Sid329 [AB024984] (rat heart tissue; CARDIOTOX 13): +1.4 fold | Effects on Transcription Level: Kruppel-like transcription factor (rat heart tissue; CARDIOTOX 14, GenBank AB020759): +1.3 fold | Effects on Transcription Level: Ribosomal protein L3 (rat heart tissue; CARDIOTOX 15, GenBank X62166): +1.4 fold | Effects on Transcription Level: Glucose-regulated protein (GRP) 75 (rat heart tissue; CARDIOTOX 16, GenBank S78556): +1.4 fold | Effects on Transcription Level: Immunoglobulin heavy chain binding protein (BiP) (rat heart tissue; CARDIOTOX 17, GenBank M14050): +1.4 fold | Effects on Transcription Level: Membrane-spannining proteoglycan NG2 (rat heart tissue; CARDIOTOX 18, GenBank X56541): −1.4 fold | Effects on Transcription Level: Novel gene fragment, 1294 bp, 96% SI to mouse Sui 1 (elF) homolog [AF129888] (rat heart tissue; CARDIOTOX 19): +1.6 fold | Effects on Transcription Level: Novel gene fragment, 723 bp, 85% SI to human translation initiation factor elF3 p40 subunit [U54559] (rat heart tissue; CARDIOTOX 20): +1.6 fold | Effects on Transcription Level: Novel gene fragment, 1324 bp, 76% SI to human flavoprotein subunit of complex II [D30648] (rat heart tissue; CARDIOTOX 21): +1.5 fold | Effects on Transcription Level: Novel gene fragment, 852 bp, 81% SI to human vacuolar proton-ATPase subunit M9.2 [Y15286] (rat heart tissue; CARDIOTOX 22): +1.5 fold | Effects on Transcription Level: Novel gene fragment, 178 bp, 91% SI to mouse myosin light chain-2 isoform MLC-2a [S70785] (rat heart tissue; CARDIOTOX 23): +1.6 fold | Effects on Transcription Level: Novel gene fragment, 167 bp, 90% SI to mouse Rab20 [X80332] (rat heart tissue; CARDIOTOX 24): +1.7 fold | Effects on Transcription Level: Novel gene fragment, 1070 bp, 80% SI to human muscle-specific protein [AF249873] (rat heart tissue; CARDIOTOX 25): +1.5 fold | Effects on Transcription Level: Novel gene fragment, 1143 bp, 82% SI to human sarcoma amplified sequence (SAS) [U01160] (rat heart tissue; CARDIOTOX 26): +1.7 fold | Effects on Transcription Level: Novel gene fragment, 74 bp,75% SI to human secreted protein [X30160] (from patent database)/[X97578] (from patent database)/potential cytokine) (rat heart tissue; CARDIOTOX 27): +1.5 fold | Effects on Transcription Level: Novel gene fragment, 408 bp, 90% SI to human CGI-07 protein [AF132941] (rat heart tissue; CARDIOTOX 28): +1.6 fold | Effects on Transcription Level: Novel gene fragment, 618 bp, 95% SI to rat progression related cDNA, ZNPE-120 3′ end partial sequence [patent database X90805] (rat heart tissue; CARDIOTOX 29): +1.5 fold | Effects on Transcription Level: Novel gene fragment, 717 bp (rat heart tissue; CARDIOTOX 30): +1.5 fold | Effects on Transcription Level: Novel gene fragment, 546 bp (rat heart tissue; CARDIOTOX 31): +1.8 fold | Effects on Transcription Level: Novel gene fragment, 920 bp, 91% SI to human HSPC061 [AF161546] (rat heart tissue; CARDIOTOX 32): +1.5 fold | Effects on Transcription Level: Novel gene fragment, 203 bp, 92% SI to rabbit sarcoplasmic reticulum glycoprotein [J04480] (rat heart tissue; CARDIOTOX 33): −1.7 fold | Effects on Transcription Level: Novel gene fragment, 178 bp, 68% SI to mouse IgG receptor (beta-Fc-gamma-RII)[M63159] (rat heart tissue; CARDIOTOX 34): +1.6 fold | Effects on Transcription Level: Ribosomal protein L6 (rat heart tissue; CARDIOTOX 35, GenBank X87107): +1.6 fold | Effects on Transcription Level: CAP2 protein (adenylyl cyclase-associated protein 2) (rat heart tissue; CARDIOTOX 36, GenBank U31935): +2.0 fold | Effects on Transcription Level: Alpha-platelet-derived growth factor receptor (rat heart tissue; CARDIOTOX 37, GenBank M63837): +1.6 fold | Effects on Transcription Level: Rab GD1 alpha protein (rat heart tissue; CARDIOTOX 38, GenBank X74402): −1.6 fold | Effects on Transcription Level: PKC-zeta-interacting protein (rat heart tissue; CARDIOTOX 39, GenBank Y08355): +1.6 fold | Effects on Transcription Level: ERK or MAP kinase (rat heart tissue; CARDIOTOX 40, GenBank X65198): +1.5 fold | Effects on Transcription Level: Peroxisomal multifunctional enzyme type II (rat heart tissue; CARDIOTOX 41, GenBank U37486): +1.5 fold | Effects on Transcription Level: HBP23 (heme-binding protein 23 kDa) (rat heart tissue; CARDIOTOX 42, GenBank D30035): +1.7 fold | Effects on Transcription Level: Caveolae-associated protein (rat heart tissue; CARDIOTOX 43, GenBank U90725): +3.0 fold | Effects on Transcription Level: Prenylated rab acceptor 1 (PRA1) (rat heart tissue; CARDIOTOX 44, GenBank AF025506): +1.5 fold | Effects on Transcription Level: Novel gene fragment, 337 bp, 88% SI to rabbit cardiac ryanodine receptor (RyR-2)[U50465] (rat heart tissue; CARDIOTOX 45): −1.7 fold | Effects on Transcription Level: Novel gene fragment, 81 bp, 85% SI to human titin [X90568] (rat heart tissue; CARDIOTOX 46): −2.2 fold | Effects on Transcription Level: Novel gene fragment, 428 bp, 86% SI to human titin [X90568] (rat heart tissue; CARDIOTOX 47): −2.0 fold | Effects on Transcription Level: Novel gene fragment, 374 bp, 88% SI to human titin [X90568] (rat heart tissue; CARDIOTOX 48): −2.3 fold | Effects on Transcription Level: Novel gene fragment, 428 bp, 85% SI to human titin [90568] (rat heart tissue; CARDIOTOX 49): −2.2 fold | Effects on Transcription Level: Novel gene fragment, 1216 bp, 93% SI to mouse mircotubule-associated protein (MAP) 1B protein [AF115776] (rat heart tissue; CARDIOTOX 50): −1.9 fold | Effects on Transcription Level: Novel gene fragment, 1115 bp, 83% SI to human KIAA0549 protein [AB011121] (rat heart tissue; CARDIOTOX 51): −2.0 fold | Effects on Transcription Level: Novel gene fragment, 153 bp (rat heart tissue; CARDIOTOX 52): −1.7 fold | Effects on Transcription Level: Novel gene fragment, 89 bp, 93% SI to human putative glialblastoma cell differentiation-related protein (GBDR1) [AF068195] (rat heart tissue; CARDIOTOX 53): −1.6 fold | Effects on Transcription Level: Rho-associated kinase beta (rat heart tissue; CARDIOTOX 54, GenBank U61266): −1.9 fold | Effects on Transcription Level: Adenylate kinase 3 (rat heart tissue; CARDIOTOX 55, GenBank D13062): +1.5 fold | Effects on Transcription Level: Amyloid beta-peptide binding protein (rat heart tissue; CARDIOTOX 56, GenBank AF049878): +1.5 fold | Effects on Transcription Level: Mitochondrial adenine nuleotide translocator (rat heart tissue; CARDIOTOX 57, GenBank D12771): +1.5 fold | Effects on Transcription Level: Novel gene fragment, 710 bp, 94% SI to mouse chromatin structural protein homolog Supt5 hp (Supt5 h)[U88539] (rat heart tissue; CARDIOTOX 58): +3.8 fold | Effects on Transcription Level: Novel gene fragment, 186 bp, 66% SI to human N-acetylglucosaminyltransferase 1 (GlcNAc-TI)[M55621] (rat heart tissue; CARDIOTOX 60): −1.7 fold | Effects on Transcription Level: Novel gene fragment, 238 bp, 95% SI to mouse MAP kinase-activated protein kinase 2 [X76850] (rat heart tissue; CARDIOTOX 61): −2.1 fold | Effects on Transcription Level: Novel gene fragment, 173 bp, 70% SI to G protein-coupled receptor kinase GRK4 [X97568] (rat heart tissue; CARDIOTOX 62): −6.1 fold | Effects on Transcription Level: Novel gene fragment, 133 bp, 77% SI to human apoptosis related protein hSARP3 [patent database: V19114] (rat heart tissue; CARDIOTOX 63): −3.4 fold | Effects on Transcription Level: Novel gene fragment, 477 bp, 98% SI to peroxisomal phytanoyl-CoA hydroxylase (PHYH) [AF121345] (rat heart tissue; CARDIOTOX 64): +5.0 fold | Effects on Transcription Level: Novel gene fragment, 413 bp, 95% SI to mouse dihydrolipoamide dehydrogenase (Dld) [U73445] (rat heart tissue; CARDIOTOX 65): +1.9 fold | Effects on Transcription Level: Novel gene fragment, 726 bp, 76% SI to human succinate dehydrogenase flavoprotein subunit (SDH) [L21936] (rat heart tissue; CARDIOTOX 66): −4.1 fold | Effects on Transcription Level: Novel gene fragment, 440 bp, 92% SI to mouse cytochrome c oxidase Vllc [X52940] (rat heart tissue; CARDIOTOX 67): +3.6 fold | Effects on Transcription Level: Novel gene fragment, 276 bp, 80% SI to human titin [X90568] (rat heart tissue; CARDIOTOX 68): −11.9 fold | Effects on Transcription Level: Novel gene fragment, 149 bp, 70% SI to human titin [X90568] (rat heart tissue; CARDIOTOX 69): −5.5 fold
